Substitutions are numbered along the chain they refer to. Each block holds one molecule with its values, some of them ahead of it. Where a SMILES comes first, the peptide text is derived from it. Bridges are numbered along the chain shown (N, C = ends). Where no end group is shown, it is not given here.
Legend:
[1] = target: T1, hCTR D287A (Homo sapiens, UniProt P30988, D287A); experiment: IP1 accumulation; type: cell-based; settings: mean ± S.E.M.
T1 construct: c-Myc (N); expressed in transfected cells
T1 sequence (P30988 25-474 D287A): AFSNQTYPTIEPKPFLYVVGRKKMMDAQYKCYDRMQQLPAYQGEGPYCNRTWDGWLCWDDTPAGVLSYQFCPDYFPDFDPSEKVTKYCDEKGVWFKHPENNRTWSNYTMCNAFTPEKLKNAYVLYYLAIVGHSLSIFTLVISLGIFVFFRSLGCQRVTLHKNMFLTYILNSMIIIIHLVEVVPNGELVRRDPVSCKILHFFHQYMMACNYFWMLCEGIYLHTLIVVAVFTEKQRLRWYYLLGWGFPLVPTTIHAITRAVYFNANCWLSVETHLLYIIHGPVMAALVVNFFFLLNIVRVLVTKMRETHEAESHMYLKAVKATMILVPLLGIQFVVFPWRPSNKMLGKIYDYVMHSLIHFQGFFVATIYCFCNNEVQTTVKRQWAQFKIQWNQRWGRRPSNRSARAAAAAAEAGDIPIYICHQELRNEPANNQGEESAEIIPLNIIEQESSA
Protocol: Cells (2.5 × 10^4 cells/well) were plated into 96 well trays and cultured overnight. Cells were stimulated with increasing concentration of ligands for 60 min in the presence of LiCl. Samples were lysed and endogenous IP1 was measured using an IP-One HTRF® assay kit (CisBio) as specified by the manufacturer. Data were normalized to the maximal response elicited by 100 μM of ATP.
IC50 and Bmax values were estimated from competitive inhibition of ^125I-sCT(8-32) binding using a 3-parameter logistic equation (log(inhibitor versus response)) in Prism (v7; Graphpad). Data were corrected for radioligand occupancy using the Cheng-Prusoff equation in Prism; as such data are reported as pKi. Emax and EC50 were estimated from concentration-response curves using with a 3-parameter logistic equation in Prism (v7). These values are a composite of functional affinity, efficacy and stimulus response coupling. […] Derived τ values were normalized to experimentally determined levels of cell surface expression to provide a measure of efficacy (τc) that is independent of affinity and altered cell surface receptor expression. pKi, pKA and log τc values for mutant receptors were statistically compared to those of the WT receptor using a one-way analysis of variance (ANOVA) and Dunnett’s post-test. […]

[2] = target: T2, hCTR C289A (Homo sapiens, UniProt P30988, C289A); experiment: IP1 accumulation; type: cell-based; settings: IP1 maximal response, mean ± S.E.M., SEM
T2 construct: c-Myc (N); expressed in transfected cells
T2 sequence (P30988 25-474 C289A): T1 sequence (P30988 25-474 D287A) with A263D, C265A
Method in brief: (§1)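 Ligand-induced IP1 (60 min, LiCl) measured by HTRF; normalized to 100 μM ATP response.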

[3] = target: T3, hCTR I300A (Homo sapiens, UniProt P30988, I300A); experiment: IP1 accumulation; type: cell-based; settings: IP1 maximal response, mean ± S.E.M., SEM
T3 construct: c-Myc (N); expressed in transfected cells
T3 sequence (P30988 25-474 I300A): T1 sequence (P30988 25-474 D287A) with A263D, I276A
Method in brief: as §1

[4] = target: T4, hCTR V375A (Homo sapiens, UniProt P30988, V375A); experiment: Homologous whole cell competition binding; settings: homologous competition of 125I-sCT(8-32), whole cells, mean ± S.E.M., SEM
T4 construct: c-Myc (N); expressed in transfected cells
T4 sequence (P30988 25-474 V375A): T1 sequence (P30988 25-474 D287A) with A263D, V351A
Method in brief: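 Cells were seeded, cultured overnight, then exposed overnight at 4 °C to two concentrations of ^125I-sCT(8-32) with increasing unlabelled sCT(8-32). Unbound ligand was washed off before counting. Affinity is given as pKi after radioligand occupancy correction.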

EC50 ([1]; IP1, CV1-FlpIn cells, 60 min, LiCl): 3.72 nM | Emax ([1]; IP1 maximal response, SEM): 56 ± 7%
Molecule: CSCC[C@H](NC(=O)CNC(=O)[C@H](CO)NC(=O)[C@H](Cc1ccccc1)NC(=O)[C@H](CCCNC(=N)N)NC(=O)[C@H](Cc1c[nH]cn1)NC(=O)[C@H](Cc1ccccc1)NC(=O)[C@H](CC(N)=O)NC(=O)[C@H](CC(N)=O)NC(=O)[C@H](CC(C)C)NC(=O)[C@H](CC(N)=O)NC(=O)[C@H](CCCNC(=N)N)NC(=O)[C@H](Cc1c[nH]c2ccccc12)NC(=O)[C@H](Cc1ccc(O)cc1)NC(=O)[C@H](C)NC(=O)[C@H](CO)NC(=O)[C@H](CC(C)C)NC(=O)[C@@H](NC(=O)[C@@H]1CSSC[C@H](N)C(=O)N[C@@H](CO)C(=O)N[C@@H](CC(N)=O)C(=O)N[C@@H](CC(C)C)C(=O)N[C@@H](CO)C(=O)N[C@@H]([C@@H](C)O)C(=O)N1)C(C)C)C(=O)NCC(=O)N[C@@H](Cc1ccccc1)C(=O)NCC(=O)N1CCC[C@H]1C(=O)N[C@@H](CCC(=O)O)C(=O)N[C@H](C(=O)N1CCC[C@H]1C(N)=O)[C@@H](C)O [pCT] (H-CSNLSTCVLSAYWRNLNNFHRFSGMGFGPETP-NH2; disulfide 1-7)

Molecule: CC(C)C[C@H](NC(=O)[C@H](CCCCN)NC(=O)CNC(=O)[C@H](CC(C)C)NC(=O)[C@@H](NC(=O)[C@@H]1CSSC[C@H](N)C(=O)N[C@@H](CO)C(=O)N[C@@H](CC(N)=O)C(=O)N[C@@H](CC(C)C)C(=O)N[C@@H](CO)C(=O)N[C@@H]([C@@H](C)O)C(=O)N1)C(C)C)C(=O)N[C@@H](CO)C(=O)N[C@@H](CCC(N)=O)C(=O)N[C@@H](CCC(=O)O)C(=O)N[C@@H](CC(C)C)C(=O)N[C@@H](Cc1c[nH]cn1)C(=O)N[C@@H](CCCCN)C(=O)N[C@@H](CC(C)C)C(=O)N[C@@H](CCC(N)=O)C(=O)N[C@H](C(=O)N[C@@H](Cc1ccc(O)cc1)C(=O)N1CCC[C@H]1C(=O)N[C@@H](CCCNC(=N)N)C(=O)N[C@H](C(=O)N[C@@H](CC(N)=O)C(=O)N[C@H](C(=O)NCC(=O)N[C@@H](CO)C(=O)NCC(=O)N[C@H](C(=O)N1CCC[C@H]1C(N)=O)[C@@H](C)O)[C@@H](C)O)[C@@H](C)O)[C@@H](C)O [sCT]
Emax [2]: 42 ± 4%

Molecule: CC[C@H](C)[C@H](NC(=O)[C@H](C)NC(=O)[C@@H](NC(=O)[C@H](CCC(N)=O)NC(=O)[C@@H]1CCCN1C(=O)[C@H](Cc1ccccc1)NC(=O)[C@@H](NC(=O)[C@H](Cc1c[nH]cn1)NC(=O)[C@H](Cc1ccccc1)NC(=O)[C@H](CCCCN)NC(=O)[C@H](CC(N)=O)NC(=O)[C@H](Cc1ccccc1)NC(=O)[C@H](CC(=O)O)NC(=O)[C@H](CCC(N)=O)NC(=O)[C@@H](NC(=O)[C@H](Cc1ccc(O)cc1)NC(=O)[C@@H](NC(=O)CNC(=O)[C@H](CC(C)C)NC(=O)[C@H](CCSC)NC(=O)[C@@H]1CSSC[C@H](N)C(=O)NCC(=O)N[C@@H](CC(N)=O)C(=O)N[C@@H](CC(C)C)C(=O)N[C@@H](CO)C(=O)N[C@@H]([C@@H](C)O)C(=O)N1)[C@@H](C)O)[C@@H](C)O)[C@@H](C)O)[C@@H](C)O)C(=O)NCC(=O)N[C@H](C(=O)NCC(=O)N[C@@H](C)C(=O)N1CCC[C@H]1C(N)=O)C(C)C [hCT]
Emax [3]: 44 ± 4%

Ki [4]: 0.191 nM
Molecule: VLGKLSQELHKLQTYPRTNTGSGTP-NH2 [sCT(8-32)]
